Values of other authors in patent publication US10213490B2, “Compositions for providing agents that degrade in water” (VIRUN, INC., priority 2015, dated 2019).

Q: Which results are given for `N[C@@H](CCC(=O)N[C@@H](CS)C(=O)NCC(=O)O)C(=O)O` [glutathione]?
A: glutathione remaining (stored in water at pH 2 and 7, after 7 days): approximately 65%; glutathione degraded (stored in water, pH 3 to 6, 7 days): 20%
